Test results: ChEMBL document CHEMBL1201862, “PubChem BioAssay data set” (2004)
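Protocol summary: plate cells (96-well), add compound at 5 concentrations, incubate 48 h, interpolate endpoints linearly. GI50 = concentration required for 50% inhibition of growth.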 Activity calls are given as the source filed them. Rule as the data show it: active = GI50 up to about 1.1 µM and inactive = higher.

Columns and labels:
Test in all cases: inhibition of tumour cell growth, NCI panel, 48 h
UO-31 = tested on: UO-31
Malme-3M = tested on: Malme-3M
MCF7 = tested on: MCF7
786-0 = tested on: 786-0
OVCAR-8 = tested on: OVCAR-8
HCT-116 = tested on: HCT-116
M14 = tested on: M14
LOX IMVI = tested on: LOX IMVI
CAKI-1 = tested on: CAKI-1
EKVX = tested on: EKVX
MDA-MB-231 = tested on: MDA-MB-231
SK-MEL-28 = tested on: SK-MEL-28
A549 = tested on: A549
NCI/ADR-RES = tested on: NCI/ADR-RES
UACC-62 = tested on: UACC-62
T47D = tested on: T47D
MDA-N = tested on: MDA-N
SF-539 = tested on: SF-539
SK-MEL-2 = tested on: SK-MEL-2

Measured: GI50

Clc1ccc(CSC2=NCCN2)cc1Cl
inactive: UO-31 11.4 µM | Malme-3M 13 µM | MCF7 11.1 µM | 786-0 11.6 µM | OVCAR-8 15.9 µM | HCT-116 14.9 µM | M14 15.2 µM | LOX IMVI 13.8 µM | CAKI-1 11.2 µM | EKVX 8.89 µM | MDA-MB-231 11.8 µM | SK-MEL-28 18.7 µM | A549 27 µM | NCI/ADR-RES 20.1 µM | UACC-62 15.9 µM | T47D 7.19 µM | MDA-N 11.7 µM

Cc1ccc(S(=O)(=O)N/N=C2/C3CC4CCC2C4C3)cc1 (stereo not given)
inactive: UO-31 > 100 µM | Malme-3M > 100 µM | MCF7 > 100 µM | 786-0 > 100 µM | OVCAR-8 > 100 µM | HCT-116 > 100 µM | SF-539 > 100 µM | M14 > 100 µM | LOX IMVI > 100 µM | CAKI-1 > 100 µM | EKVX > 100 µM | MDA-MB-231 > 100 µM | SK-MEL-28 > 100 µM | A549 > 100 µM | NCI/ADR-RES > 100 µM | UACC-62 > 100 µM | T47D > 100 µM | MDA-N > 100 µM

COc1cc(/C=N/n2c(Cc3ccc(Cl)cc3)n[nH]c2=O)cc(OC)c1OC
inactive: UO-31 > 100 µM | Malme-3M > 100 µM | MCF7 > 100 µM | 786-0 > 100 µM | OVCAR-8 26.5 µM | HCT-116 > 100 µM | SF-539 44.8 µM | M14 > 100 µM | CAKI-1 > 100 µM | EKVX > 100 µM | MDA-MB-231 > 100 µM | SK-MEL-28 > 100 µM | A549 > 100 µM | NCI/ADR-RES > 100 µM | UACC-62 > 100 µM | T47D > 100 µM | MDA-N > 100 µM | SK-MEL-2 > 100 µM

CC1=CC(=O)C(=CN2C(=O)/C(=C\c3cccnc3)NC2=S)C(=O)O1
inactive: UO-31 > 100 µM | MCF7 > 100 µM | 786-0 > 100 µM | OVCAR-8 > 100 µM | HCT-116 > 100 µM | SF-539 > 100 µM | M14 > 100 µM | LOX IMVI > 100 µM | CAKI-1 > 100 µM | EKVX > 100 µM | MDA-MB-231 > 100 µM | SK-MEL-28 > 100 µM | A549 > 100 µM | NCI/ADR-RES > 100 µM | T47D > 100 µM | MDA-N > 100 µM | SK-MEL-2 > 100 µM
